Measurements taken from patent US20100261739A1, “Method of Treating Non-Small Cell Lung Cancer” (Myriad Pharmaceuticals, Inc., priority 2007, published 2010).
Where a name gives a salt, the structure may show the parent alone.

Tested on: Subjects with Refractory Solid Tumors
Assay: Phase I clinical trial, open-label, dose-escalating, multiple-dose, weekly intravenous administration
Assay type: in vivo, human
Description: An open-label, dose-escalating, multiple-dose study to define the safety, tolerability and phamacokinetics of weekly intravenous administration of (4-Methoxy-phenyl)-methyl-(2-methyl-quinazolin-4-yl)-amine hydrochloride was performed. A dosing schedule (each 4 week cycle) was performed for (4-Methoxy-phenyl)-methyl-(2-methyl-quinazolin-4-yl)-amine hydrochloride weekly for 3 weeks with no infusion on the fourth week of each cycle. Subjects with refractory solid tumors were enrolled. During Cycle 1, subjects were hospitalized during each infusion of (4-Methoxy-phenyl)-methyl-(2-methyl-quinazolin-4-yl)-amine hydrochloride and remained for observation and safety evaluation for approximately 24 hours following the end of the infusion. All subject had continuous telemetry for 2 hours prior to infusion, for 1-2 hour infusion and for 3 hours after the end of the infusion. Any clinically significant electrocardiographic (ECG) wave form abnormality was recorded and prolongation of the monitoring period extended at the discretion of the principal investigator.
Electrocardiograms were obtrained prior to starting the infusion and within 30 minutes of the end of infusion for each infusino of the first cycle. Electrocardiograms on Day 1 were obtained in triplicate 5 minutes apart.
Neurocognitive assessments were made by administration of the Mini-Mental State Examination (MMSE), the Hopkins Verbal Learning and timed Grooved Pegboard tests before administration of the intravenous infusion and approximately 24 hours after the infusion at each weekly administration of the first cycle.
On days 1, 8, and 15 of each cycle, vital signs were obtained prior to the first dose, at 15, 30, and 60 minutes after the initiation of the infusion, and at 0.5, 1, 1.5, 2, and 4 hours after the end of the intravenous infusion. Vital signs at all time points beyond the start of the intravenous infusion included heart rate, blood pressure and respirations. Temperature was measured at the end of the infusion and 4 hours later.
Individual subjects were allowed to continue on repeated weekly ×3 administrations every 28 days with no dose increase provided there was no unacceptable toxicity or disease progression.
Tumor response was evaluated by response evaluation criteria in solid tumors
(RECIST) criteria. To prevent sever hypersensitivity reactions due to Cremophor® EL, subjects were premedicated with oral dexamethasone (20 mg) administered approximately 12 and 6 hours before the intravenous infusion with (4-Methoxy-phenyl)-methyl-(2-methyl-quinazolin-4-yl)-amine hydrochloride, diphenhydramine (50 mg) or its equivalent administered intravenously 30-60 minutes before (4-Methoxy-phenyl)-methyl-(2-methyl-quinazolin-4-yl)-amine hydrochloride, and cimetidine (300 mg) or ranitidine (50 mg) administered intravenously 30-60 minutes before (4-Methoxy-phenyl)-methyl-(2-methyl-quinazolin-4-yl)-amine hydrochloride.

[1] = at the administered doses (0.3-4.5 mg/m^2), weekly i.v.

With `COc1ccc(N(C)c2nc(C)nc3ccccc23)cc1` [(4-Methoxy-phenyl)-methyl-(2-methyl-quinazolin-4-yl)-amine hydrochloride] the cytotoxicity peripherally [1] was “no evidence from the results of the clinical trials of cytotoxicity peripherally”, the “effect on laboratory parameters (neutrophils, platelets, hemoglobin)” value [1] was “no apparent effect” and the safety and tolerability (human subjects at selected dosages, summary of Phase 1 studies) was “safe and well tolerated”. For the same compound, the “disease progression (tumor response by RECIST criteria)” value (one patient in Cohort 10 (3.3 mg/m^2) with NSCLC that had metastasized to the CNS, weekly i.v. for 3 weeks of each 4 week cycle) was “not shown to have disease progression”, the dose limiting toxicity (particularly in Cohorts 8 and 9 (3.9 and 4.5 mg/m^2)) was “vascular in nature, manifested by an acute coronary syndrome” and the intratumor bleeding (weekly i.v., human subjects) was “incidences of intratumor bleeding”. The “optimal dosage derived from the trials” value (weekly i.v., hydrochloride salt basis) was ≤ 3.3 mg/m^2 and the safety and tolerability (within dosage range 3.3 mg/m^2 or lower) was “safe and tolerated”.
